Data: ChEMBL document CHEMBL6092198, “Coumarin-Quinazolinone based photosensitizers: Mitochondria and endoplasmic reticulum targeting for enhanced phototherapy via different cell death pathways” (Eur J Med Chem, 2024)
The source made the active and inactive calls. No cut-off for these calls is given here.

Assays:
[1] = Photophysical property of the compound in water assessed as fluorescence quantum yield under 450 nm photoirradiation with blue light lamp by U-4100 spectrophotometric analysis; assay type: physicochemical; parameters: unit not given here; settings: buffer
[2] = Photophysical property of the compound in MeOH assessed as fluorescence quantum yield under 450 nm photoirradiation with blue light lamp by U-4100 spectrophotometric analysis; assay type: physicochemical; parameters: unit not given here
[3] = Photophysical property of the compound assessed as singlet oxygen quantum yield under 15 W photoirradiation with blue LED light by EPR spectrophotometric analysis; assay type: physicochemical; parameters: unit not given here
[4] = Drug localization in mitochondria of human HepG2 cells at 2 uM incubated for 2 hrs by MitoTracker red CMXRos staining based confocal fluorescence microscopy; assay type: ADME; settings: hepg2, 2 h
HepG2 [5] = test: Cytotoxicity against human HepG2 cells assessed as cell viability incubated for 4 hrs under dark condition by MTT assay; assay type: functional, cell-based; settings: HepG2, 4 h
[6] = Phototoxicity against human HepG2 cells assessed as cell viability preincubated with compound for 4 hrs followed by light irradiation with 450 nm blue LED lamp for 10 mins and measured after 24 hrs by MTT assay; assay type: functional, cell-based; settings: HepG2, light or radiation study
[7] = Phototoxic index, ratio of IC50 for cytotoxicity against human HepG2 cells incubated for 4 hrs under dark condition by MTT assay to IC50 for cytotoxicity against human HepG2 cells preincubated with compound for 4 hrs followed by light irradiation with 450 nm blue LED lamp for 10 mins and measured after 24 hrs by MTT assay; assay type: functional
HepG2 [8] = test: (§1) Induction of apoptosis in human HepG2 cells assessed as chromatin condensation by measuring increase in blue fluorescence at 0.3 uM preincubated with compound for 4 hrs followed by light irradiation with 450 nm blue LED lamp for 10 mins and measured after 24 hrs by Hoechst 33342 staining based confocal microscopic analysis; assay type: functional, cell-based; settings: time 1690.0 min
HepG2 [9] = test: as §1, with “in red” for “in blue”, “by PI” for “by Hoechst 33342”; assay type: functional, cell-based; settings: time 1690.0 min
HepG2 [10] = test: Induction of ferroptosis in human HepG2 cells assessed as downregulation of Keap1 expression preincubated with compound for 4 hrs followed by light irradiation with blue LED lamp for 10 mins and measured after 24 hrs in presence of Fer-1 by Western blot analysis; assay type: functional, cell-based; settings: time 1690.0 min
HepG2 [11] = test: Induction of ferroptosis in human HepG2 cells assessed as downregulation of Gpx4 expression preincubated with compound for 4 hrs followed by light irradiation with blue LED lamp for 10 mins and measured after 24 hrs in presence of Fer-1 by Western blot analysis; assay type: functional, cell-based; settings: time 1690.0 min
HepG2 [12] = test: Induction of ferroptosis in human HepG2 cells assessed as downregulation of Fth1 expression preincubated with compound for 4 hrs followed by light irradiation with blue LED lamp for 10 mins and measured after 24 hrs in presence of Fer-1 by Western blot analysis; assay type: functional, cell-based; settings: time 1690.0 min
HepG2 [13] = test: Induction of ferroptosis in human HepG2 cells assessed as cell viability preincubated with compound for 4 hrs followed by light irradiation with 450 nm blue LED lamp for 10 mins and measured after 24 hrs in presence of 50 uM Fer-1 by MTT assay relative to control; assay type: functional; settings: time 1690 min; 28.17 h
HepG2 [14] = test: Induction of apoptosis in human HepG2 cells assessed as effect on PARP level preincubated with compound for 4 hrs followed by light irradiation with blue LED lamp for 10 mins and measured after 24 hrs by Western blot analysis; assay type: functional, cell-based; settings: time 1690.0 min
HepG2 [15] = test: Induction of apoptosis in human HepG2 cells assessed as effect on caspase-3 level preincubated with compound for 4 hrs followed by light irradiation with blue LED lamp for 10 mins and measured after 24 hrs by Western blot analysis; assay type: functional, cell-based; settings: time 1690.0 min
HepG2 [16] = test: Induction of apoptosis in human HepG2 cells assessed as increase in Bax expression preincubated with compound for 4 hrs followed by light irradiation with blue LED lamp for 10 mins and measured after 24 hrs by Western blot analysis; assay type: functional, cell-based; settings: time 1690.0 min
HepG2 [17] = test: Induction of apoptosis in human HepG2 cells assessed as change in Bcl-2 level preincubated with compound for 4 hrs followed by light irradiation with blue LED lamp for 10 mins and measured after 24 hrs by Western blot analysis; assay type: functional, cell-based; settings: time 1690.0 min
HepG2 [18] = test: Induction of apoptosis in human HepG2 cells assessed as reduction in Bcl-2/Bax ratio preincubated with compound for 4 hrs followed by light irradiation with blue LED lamp for 10 mins and measured after 24 hrs by Western blot analysis; assay type: functional, cell-based; settings: time 1690.0 min
HepG2 [19] = test: Induction of apoptosis in human HepG2 cells assessed as cytochrome C release from mitochondria preincubated with compound for 4 hrs followed by light irradiation with blue LED lamp for 10 mins and measured after 24 hrs by Western blot analysis; assay type: functional, cell-based; settings: time 1690.0 min
HepG2 [20] = test: Induction of mitochondrial damage in human HepG2 cells assessed as change in mitochondrial morphology at 1 uM preincubated with compound for 4 hrs followed by light irradiation with blue LED lamp for 10 mins and measured after 24 hrs by confocal microscopic analysis; assay type: functional, cell-based; settings: time 1690.0 min
Mitochondrial membrane = test: Induction of mitochondrial membrane potential loss in human HepG2 cells at 3 uM incubated for 4 hrs in presence of light irradiation by TMRE staining based fluorescence microscopic analysis; assay type: cell membranes
HepG2 [21] = test: Antiproliferative activity against human HepG2 cells cultured as 3D spheroids assessed as inhibition of cell growth at 5 to 10 uM pretreated with 450 nm light irradiation and compound for 10 mins and measured at day 5 by fluorescence microscopic analysis; assay type: functional, cell-based; settings: dose 5-10 µM, time 7210.0 min
HepG2 [22] = test: Antiproliferative activity against human HepG2 cells cultured as 3D spheroids assessed as inhibition of cell growth at 5 uM pretreated with 450 nm light irradiation and compound for 10 mins and measured at day 5 by fluorescence microscopic analysis; assay type: functional, cell-based; settings: time 7210.0 min
[23] = Drug localization in lysosome of human HepG2 cells at 2 uM incubated for 2 hrs by Lyso-Tracker staining based confocal fluorescence microscopy; assay type: ADME, subcellular; settings: hepg2, 2 h
[24] = Drug localization in nucleus of human HepG2 cells at 2 uM incubated for 2 hrs by […] staining based confocal fluorescence microscopy; assay type: ADME, subcellular; settings: hepg2, 2 h
[25] = Drug localization in endoplasmic reticulum of human HepG2 cells at 2 uM incubated for 2 hrs by ER-Tracker Blue staining based confocal fluorescence microscopy; assay type: ADME, subcellular; settings: hepg2, 2 h
HepG2 [26] = test: as §1, with “0.1” for “0.3”; assay type: functional, cell-based; settings: time 1690.0 min
HepG2 [27] = test: as §1, with “in red” for “in blue”, “at 0.1” for “at 0.3”, “by PI” for “by Hoechst 33342”; assay type: functional, cell-based; settings: time 1690.0 min
HepG2 [28] = test: Induction of ferroptosis in human HepG2 cells assessed as cell death preincubated with compound for 4 hrs followed by light irradiation with 450 nm blue LED lamp for 10 mins and measured after 24 hrs in presence of ferrostatin-1 by MTT assay; assay type: functional, cell-based; settings: time 1690.0 min
HepG2 [29] = test: Induction of ferroptosis in human HepG2 cells assessed as cell death preincubated with compound for 4 hrs followed by light irradiation with 450 nm blue LED lamp for 10 mins and measured after 24 hrs in presence of 50 uM ferrostatin-1 by MTT assay; assay type: functional, cell-based; settings: time 1690.0 min
HepG2 [30] = test: Induction of ferroptosis in human HepG2 cells assessed as cell viability preincubated with compound for 4 hrs followed by light irradiation with 450 nm blue LED lamp for 10 mins and measured after 24 hrs in presence of necrostatin-1 by MTT assay; assay type: functional, cell-based; settings: time 1690.0 min
HepG2 [31] = test: Induction of ferroptosis in human HepG2 cells assessed as cell viability preincubated with compound for 4 hrs followed by light irradiation with 450 nm blue LED lamp for 10 mins and measured after 24 hrs in presence of 3-methyladenine by MTT assay; assay type: functional, cell-based; settings: time 1690.0 min
HepG2 [32] = test: Induction of ferroptosis in human HepG2 cells assessed as cell viability preincubated with compound for 4 hrs followed by light irradiation with 450 nm blue LED lamp for 10 mins and measured after 24 hrs in presence of chloroquine by MTT assay; assay type: functional, cell-based; settings: time 1690.0 min

Activity [1] | Activity [2] | Activity [3] | SMILES | IC50 (HepG2 [5]) [µM] | IC50 [6] [nM] | Ratio IC50 [7] | other results
8.72 | 69.6 | 27.22 | CCN(CC)c1ccc2cc(-c3nc4ccc(OCc5cn(CCC[P+](c6ccccc6)(c6ccccc6)c6ccccc6)nn5)cc4c(=O)[nH]3)c(=O)oc2c1.[Br-] | 46.7 | 280 | 166.89 | Drug uptake [4]: Active; Activity (HepG2 [8]): Active; Activity (HepG2 [9]): Active; Activity (HepG2 [10]): Active; Activity (HepG2 [11]): Active; Activity (HepG2 [12]): Active; Activity (HepG2 [13]): ~70%; Activity (HepG2 [14]): Active; Activity (HepG2 [15]): Active; Activity (HepG2 [16]): Active; Activity (HepG2 [17]): inactive; Activity (HepG2 [18]): Active; Activity (HepG2 [19]): Active; Activity (HepG2 [20]): Active; Activity (Mitochondrial membrane): Active; Activity (HepG2 [21]): Active; Activity (HepG2 [22]): Active
7.55 | 59.27 | 30.08 | CCN(CC)c1ccc2cc(-c3nc4ccc(OCc5cn(CCNS(=O)(=O)c6ccc(C)cc6)nn5)cc4c(=O)[nH]3)c(=O)oc2c1 | 36.7 | 150 | 244.93 | Drug uptake [25]: Active; Activity (HepG2 [26]): Active; Activity (HepG2 [27]): Active; Activity (HepG2 [28]): Active; Activity (HepG2 [29]): Active; Activity (HepG2 [30]): Active; Activity (HepG2 [31]): Active; Activity (HepG2 [32]): Active

Further lines, the compound ahead of its results:

SMILES | Activity [1] | Activity [2] | Activity [3] | IC50 (HepG2 [5]) [µM] | IC50 [6] [nM] | Ratio IC50 [7] | other results
CCN(CC)c1ccc2cc(-c3nc4ccc(OCCCN5CCOCC5)cc4c(=O)[nH]3)c(=O)oc2c1 | 31.49 | 79.66 | 13.06 | 12.4 | 380 | 32.52 | Drug uptake [23]: Active
CCN(CC)c1ccc2cc(-c3nc4ccc(OCCN5CCCCC5)cc4c(=O)[nH]3)c(=O)oc2c1 | 15.68 | 47.65 | 24.5 | 3.95 | 110 | 35.9 | Drug uptake [24]: Active
CCN(CC)c1ccc2cc(-c3nc4ccc(O)cc4c(=O)[nH]3)c(=O)oc2c1 | < 5 | 36.66 | 12.86 | 57.6 | 24500 | 2.35 | –
